Here are results for 4 molecules from patent publication US20160194359A1, “CELL-REACTIVE, LONG-ACTING, OR TARGETED COMPSTATIN ANALOGS AND RELATED COMPOSITIONS AND METHODS” (APELLIS PHARMACEUTICALS, INC., priority 2012, published 2016).

Assay [1] has as its system complement activation (alternative pathway). The note with it: WO2004/026328; cited from earlier work.
In assay [2] the test system is complement activation via the classical pathway. The assay can be described thus: classical complement inhibition assay (C3b deposition ELISA). Format: biochemical, Human. As for the experimental part: Inhibitory activity of the synthesized compounds was assessed by measuring the effect of the compounds on complement activation via the classical pathway using a standard complement inhibition assay. The protocol measures C3b deposition in an ELISA format. C3b deposition monitored using this method is generated through complement activated by the classical pathway. Briefly, 96-well plates are coated with BSA. Human plasma, chicken ovalbumin (OVA), polyclonal anti-OVA antibodies and compound being tested (referred to as “drug”) are added and incubated, followed by addition of Anti-human C3 HRP-conjugated antibody. After an additional incubation, substrate is added and signal detected. Details of the protocol are as follows:
Protocol for Classical Complement Inhibition Assay
• Ninety-six well plate (polystyrene plate, Thermo Scientific, 9205) • Chicken OVA (Sigma A5503-5G) • Rabbit anti-chicken OVA (Abcam ab1221) • Blocking buffer (Startingblock buffer, Thermo Scientific 37538) • Veronal Buffer (5× concentration, Lonza 12-624E) • Human plasma (collected with Lepirudin at 50 ug/ml final concentration) • Goat anti-human C3 HRP-conjugated Ab (MP Biomedicals, 55237) • Tween-20 Wash Buffer (0.05% Tween 20-PBS buffer) • TMB (Peroxidase substrate, BD 555214)—1:1 mixture of BD 51-2607KC and 51-2606KC. • 1M H2SO4
• 1. […] Read the plate at 450 nm
Data was analyzed using GraphPad Prism5 software. […]
A general note: An ELISA detects its analyte on a solid surface through an enzyme-linked reagent.

The subject of assay [3] is RBCs from a patient with PNH. Description: modified Ham's test with flow cytometry for CD59 and C3d (Example 18). Format: cell-based, human. The note with it: for % C′3 (Type I) / % C′3 (Type II) / % C′3 (Type III): cells positive for C3 loading. As for the experimental part:
A modified Ham's test was performed to assess the ability of compstatin analogs to protect PNH RBCs from complement-mediated lysis. […] Exposure to heat inactivated human serum was used as a control representing no significant complement-mediated lysis as complement is inactivated by heat. Exposure to acidified human serum and magnesium (Mg^2+) in the absence of complement inhibitors (pane labeled Mg^2+) was used as a control representing maximum lysis.
Following incubation, cells were stained with antibodies to CD59 and C3d. Cd59 level permitted the classification of the PNH RBCs as Type I, Type II, or Type III. Staining for C3d, a product of C3 activation and cleavage was used as a marker of C3 and C3 activation product deposition (loading). Flow cytometric analysis was performed to assess CD59 and C3d on RBC surfaces and to quantify the percentages of Type I, Type II, and Type III cells present in various samples.
Type I cells (shown in orange in FIG. 12) have normal levels of CD59. Type III cells (shown in blue in FIG. 12) have essentially no detectable CD59. […] Type II cells (shown in purple in FIG. 12) have reduced levels of CD59 as compared with normal or Type I cells and have an intermediate sensitivity to complement-mediated lysis. […] Reduction in or absence of lysis may be evidenced by increased levels of C3 or C3 activation products on Type II cells, as is evident by comparing the level of C3d on Type II cells in the no lysis panel with the level of C3d on Type II cells in the max. lysis panel in both FIGS. 12(A) and 12(B). […] A shift in the relative percentages of Type I, II, and III cells from the percentages present in the max. lysis control panels (Mg^2+) towards the percentages present in the no lysis control panels (heat inactivated serum) is indicative of protection against complement-mediated lysis. The column labeled % C′3 in Table 11 refers to the percentage of cells deemed “positive” for presence of C3 and C3 activation products (“C3 loading”).

The next assay deals with PNH RBCs. The assay can be described thus: modified Ham's assay, comparison with Soliris (Example 19). Format: cell-based, human. Conditions: CA28-2GS-BF at 50 ug/ml. The procedure:
Flow cytometry was performed after antibody staining using antibodies against CD59 and C3d. In this figure, quadrant 1 (Q1) and quadrant 3 (Q3) represent Type III cells. Quadrant 2 (Q2) and quadrant 4 (Q4) represent Types I and II cells. Q1 and Q2 represent cells with a significant and abnormally high amount of C3 activation product (e.g., C3d) deposition.

Assay [4] concerns the target T1, complement component C3 (human) (human, UniProt P01024 23-1663). Description: cell-based or functional assay.
In assay [5] the target is T1, complement component C3 (human). Description: cell-based or functional assay. This is another data set of the same source.
Assay [6] has the same target. Description: cell-based or functional assay. This is another data set of the same source.

As usually defined, the IC50 is the concentration that gives 50% inhibition. Take `CC[C@H](C)[C@H](N)C(=O)N[C@H]1CSSC[C@@H](C(=O)N[C@H](C(N)=O)[C@@H](C)O)NC(=O)[C@H](CCCN=C(N)N)NC(=O)[C@H](Cc2cnc[nH]2)NC(=O)[C@H](Cc2cnc[nH]2)NC(=O)CNC(=O)[C@H](Cc2c[nH]c3ccccc23)NC(=O)[C@H](CC(=O)O)NC(=O)[C@H](CCC(N)=O)NC(=O)[C@H](C(C)C)NC(=O)[C@H](C(C)C)NC1=O` [Compstatin]: the IC50 in assay [1] was 12000 nM.

Consider “CA28-2GS-BF: two CA28-AEEAc-Lys moieties coupled to bifunctional linear 40 kD PEG, NHS-OCO(CH2)3COO-PEG-CO(CH2)3COO-NHS”, for which the “activity per compstatin analog (peptide) moiety compared with CA28” value in assay [2] is recorded as “less than the activity of an individual CA28 molecule”. In addition, the “complement inhibiting activity compared with CA28 on a molar basis” value in assay [2] is given as “virtually identical”. In assay [3] (at 100 micrograms/ml compound or higher concentrations), the “C3 loading on PNH red cells” value is listed as “virtually no C3 loading”. Further, the “Type III %” value in assay [3] (compound at 20 micrograms/ml) is listed as 19.19%; in assay [3] (compound at 50 micrograms/ml), 13.87%; in assay [3] (compound at 500 micrograms/ml) it was 37.87%. Moreover, the “% C′3 (Type I)” value was determined as 2.18% in assay [3] (compound at 20 micrograms/ml); 2.84% in assay [3] (compound at 40 micrograms/ml); 2.28% in assay [3] (compound at 50 micrograms/ml); 2.05% in assay [3] (compound at 60 micrograms/ml); 0.07% in assay [3] (compound at 100 micrograms/ml); 0.02% in assay [3] (compound at 200 micrograms/ml). The “% C′3 (Type I)” value in assay [3] (compound at 500 micrograms/ml) is 0.04%. Also, the “% C′3 (Type II)” value in assay [3] (compound at 20 micrograms/ml) came to 12.28%; in assay [3] (compound at 60 micrograms/ml), 13.04%; in assay [3] (compound at 100 micrograms/ml), 0.88%; in assay [3] (compound at 200 micrograms/ml), 0.26%; in assay [3] (compound at 500 micrograms/ml) it was 0.3%. Also, the “% C′3 (Type III)” value in assay [3] (compound at 20 micrograms/ml) is recorded as 0.99%; in assay [3] (compound at 40 micrograms/ml), 1.21%; in assay [3] (compound at 50 micrograms/ml) it was 1.29%; in assay [3] (compound at 60 micrograms/ml), 1.44%; in assay [3] (compound at 100 micrograms/ml) it was 0.11%; in assay [3] (compound at 200 micrograms/ml), 0.02%. Besides, the “% C′3 (Type III)” value in assay [3] (compound at 500 micrograms/ml) is on record as 0.05%. Moreover, the “Type II %” value was 53.93% in assay [3] (compound at 100 micrograms/ml), 51.99% in assay [3] (compound at 200 micrograms/ml) and 51.87% in assay [3] (compound at 500 micrograms/ml). For the same molecule, in the assay with PNH RBCs (Q1 = Type III cells with abnormally high C3d deposition), the “Q1 # Events” value was 23. In the assay with PNH RBCs (Q3 = Type III cells without significant C3d deposition), the “Q3 # Events” value was 153,187. For the same molecule, the “Q4 # Events” value in the assay with PNH RBCs (Q4 = Types I and II cells without significant C3d deposition) is on record as 95,713. Also, the “deposition of C3d / C3 activation products on PNH RBCs” value in the assay with PNH RBCs (activated complement) is given as “essentially no deposition of C3d”.

B1: CA28-2TS-BF (bifunctionalized PEG-based compstatin analog, TS type) (peptide)
peptide: ICVWQDWGAHRCTK
modifications: N-terminal acetyl; 1-methyl-tryptophan at position 4; disulfide Cys2-Cys12; AEEAc linker after Thr13; Lys side chain coupled through a carbamate to one end of a bifunctional linear 40 kD PEG (TS type); C-terminal amide
Take B1: the “IC50 (read off the curve); alternative pathway complement activation (LPS-coated plate, C3b deposition ELISA, human plasma) [B]” value in assay [4] was ~400 nM.

B2: (CA28-AEEAc)8-PEG40k (peptide)
peptide: ICVWQDWGAHRCTK
modifications: N-terminal acetyl; 1-methyl-tryptophan at position 4; disulfide Cys2-Cys12; AEEAc linker after Thr13; Lys side chain coupled to one arm of an eight-arm 40 kD PEG (NOF HGEO-400GS); C-terminal amide
As for B2, in assay [5], the “IC50 on a molar basis, classical complement inhibition assay” value is ~260 nM. Also, in assay [6], the “IC50, classical complement inhibition assay (C3b deposition ELISA), as a function of CA28 concentration” value was determined as 1930 nM.
